The nature of the data set: solvent given as SMILES.

Several values for one entry are separate records, joined by “and”; a condition that tells them apart may be missing. Identical values can stand only once.

From the Deep4Chem optical property database come the findings set out here.

Under “in C1CCOC1”, `CCCCn1c2ccc(-c3cccs3)cc2c2c1c1c3ccc(-c4cccs4)cc3n(CCCC)c1c1c3ccc(-c4cccs4)cc3n(CCCC)c21` had a fluorescence lifetime of 4.2 ns.
Under “in ClCCl”, `[O-][n+]1c(/C=C/c2ccccc2)nc(N2CCOCC2)c2c1CCCC2` had a fluorescence lifetime of 9.2 ns.
For the molecule `Cc1oc2c(Cl)cc3c(C)cc(=O)oc3c2c1C`, the fluorescence lifetime amounted to 0.08 ns (in C1COCCO1), 0.15 ns (in CC#N), 0.79 ns (in CCO) and 2.4 ns (in OCC(F)(F)F).
In the case of `CC1=CC(C)=[N+]2C1=C(c1c(-c3ccccn3)nc3ccccn13)c1c(C)cc(C)n1[B-]2(F)F`, the fluorescence lifetime (in ClCCl) came to 6.9 ns.
Take `CCCCCCCCCCCCOc1cc2c3c(ccc4c5c(OCCCCCCCCCCCC)cc6c7c(ccc(c1c34)c75)C(=O)N(C1CCCCC1)C6=O)C(=O)N(C1CCCCC1)C2=O`: the fluorescence lifetime (in ClC(Cl)Cl) came to 5.4 ns.
On to `CC(C)(C)c1ccc2c(c1)-c1c3c(c4c5c1-c1cc(C(C)(C)C)ccc1OB5Oc1ccc(C(C)(C)C)cc1-4)-c1cc(C(C)(C)C)ccc1OB3O2`, for which the fluorescence lifetime (in ClCCl) came out at 3.96 ns.
With `CCCCCCCCCCCCN1C(=O)c2ccc3c4ccc5c6c(ccc(c7ccc(c2c37)C1=O)c64)C(=O)N(CCCCCCCCCCCC)C5=O`, the fluorescence lifetime (in CN(C)C=O) turned out to be 4.1 ns.
`FC(F)(F)c1ccc(-c2ccc(-c3cc(-c4ccccn4)nc(-c4ccccn4)c3)cc2)cc1`: the fluorescence lifetime (in ClCCl) is 1.48 ns.
On the same count and under the same terms, for `O=P1(c2ccccc2)C(c2ccc(C(F)(F)F)cc2)=Cc2cc3ccccc3cc21` (centres undefined) the value was 3 ns.
As for `c1ccc2c(c1)ccc1ccc3ccc4ccccc4c3c12`, the fluorescence lifetime (in ClC(Cl)Cl) came to 26 ns.
Regarding `CCC1(CC)c2cc(N(c3ccccc3)c3ccccc3)ccc2-c2c1c1c(c3c2C(CC)(CC)c2cc(N(c4ccccc4)c4ccccc4)ccc2-3)C(CC)(CC)c2cc(N(c3ccccc3)c3ccccc3)ccc2-1`, the fluorescence lifetime (in C1CCOC1) amounted to 2.1 ns.
For `O=Cc1ccc(C#CC(C#Cc2ccc(C=O)s2)=Cc2ccc(C=C(C#Cc3ccc(C=O)s3)C#Cc3ccc(C=O)s3)cc2)s1`, the fluorescence lifetime (in ClC(Cl)Cl) was 0.8 ns.
In the case of `c1ccc(-c2nc(-c3ccccc3)nc(-c3cc(-n4c5ccccc5c5ccccc54)c(-n4c5ccccc5c5ncccc54)c(-n4c5ccccc5c5ccccc54)c3)n2)cc1`, where the note is “in O=P(c1ccccc1)(c1ccccc1)c1ccc2oc3ccc(P(=O)(c4ccccc4)c4ccccc4)cc3c2c1”, the fluorescence lifetime turned out to be 20.4 ns.
As to `Cn1nc(-c2ccccc2)c2n[nH]nc2c1=O`, the fluorescence lifetime stood at 2 ns (in CC#N), 1.9 ns (in CCO) and 1.2 ns (in Cc1ccccc1).
Molecule `O=C1c2ccc3c4c(NC5CCCCC5)cc5c6c(ccc(c7c(NC8CCCCC8)cc(c2c37)C(=O)N1C1CCCCC1)c64)C(=O)N(C1CCCCC1)C5=O` had a fluorescence lifetime (in ClC(Cl)Cl) of 1.4 ns.
Turning to `CC1=C(c2cccs2)C(C)=[N+]2C1=C(c1ccc(OS(=O)(=O)c3ccc([N+](=O)[O-])cc3[N+](=O)[O-])cc1)c1c(C)c(-c3cccs3)c(C)n1[B-]2(F)F`, the fluorescence lifetime (in Cc1ccccc1) was 3.6 ns.
On to `Cn1cc(-c2nc3ccccc3nc2/C=C/N2CCCC2)c2ccccc21`, for which the fluorescence lifetime (in C1CCCCC1) came out at 1.27 ns; the fluorescence lifetime (in C1CCOC1) came to 5.12 ns; the fluorescence lifetime (in CC#N) is 6.75 ns; the fluorescence lifetime (in CC(C)=O) was determined as 6.42 ns; the fluorescence lifetime (in CCO) was determined as 0.75 ns; the fluorescence lifetime (in CO) was 0.19 ns. In addition, the fluorescence lifetime by setting is: (in CS(C)=O) 7.19 ns; (in Cc1ccccc1) 3.62 ns; (in ClCCl) 7.01 ns.
In the case of `CCC1(CC)c2ccccc2-c2c1c1c(c3c2C(CC)(CC)c2cc(-c4cccs4)ccc2-3)C(CC)(CC)c2cc(N(c3ccccc3)c3ccccc3)ccc2-1`, the fluorescence lifetime (in C1CCOC1) was 1.7 ns.
For `CC(C)[Si](C#Cc1c2ccccc2c(C#C[Si](C(C)C)(C(C)C)C(C)C)c2nc3cc4c(cc3nc12)C1c2ccccc2C4c2ccccc21)(C(C)C)C(C)C`, the fluorescence lifetime is, setting by setting: (in CCCCCC) 13.3 ns; (in ClCCl) 18.3 ns.
Under “in c1ccccc1”, `COc1ccc(-c2nc3ccccc3oc2=O)cc1` returned a fluorescence lifetime of 2.5 ns.
In the case of `Cc1ccc(-n2c(-c3ccccc3O)nc(-c3ccccc3O)c2-c2ccccc2O)cc1`, the fluorescence lifetime runs as follows: (in C1CCOC1) 3.1 ns; (in CC(C)O) 3.5 ns; (in CO) 2.9 ns; (in CS(C)=O) 3.7 ns; (in ClC(Cl)Cl) 1.2 ns; (in ClCCl) 1.4 ns.
Regarding `CCc1ccc(-c2nc(-c3ccc(-n4c5ccccc5c5ccccc54)cc3)cc(-c3ccc(-n4c5ccccc5c5ccccc54)cc3)n2)cc1`, the fluorescence lifetime reads like this: (in C1CCOC1) 3.72 ns; (in CN(C)C=O) 7.1 ns; (in Cc1ccccc1) 2.05 ns; (in ClC(Cl)Cl) 3.57 ns.
On to `CCOC(=O)CCCCCn1c2ccc(N)cc2c(=O)c2cc3c(cc21)c(=O)c1cc(N)ccc1n3CCCCCC(=O)OCC`, for which the fluorescence lifetime (in ClCCl) was 15.6 ns.
In the case of `COC(=O)c1noc(-c2ccccc2)c1Br`, the fluorescence lifetime (in C1CCCCC1) worked out at 0.49 ns.
As for `C[Si]1(C)c2ccc(-c3ccc(-c4cccs4)s3)cc2C=Cc2cc(-c3ccc(-c4cccs4)s3)ccc21`, the fluorescence lifetime (in ClCCl) was 0.47 ns.
As for `O=C1/C(=C2\Sc3ccc(S(=O)(=O)Cl)cc3C2=O)Sc2ccc(S(=O)(=O)Cl)cc21`, the fluorescence lifetime is, setting by setting: (in C1COCCO1) 12 ns; (in CS(C)=O) 0.17 ns.
`CC1=CC(C)=[N+]2C1=C(c1ccc(I)cc1)c1c(C)cc(C)n1[B-]21OCCO1`: the fluorescence lifetime (in ClC(Cl)Cl) worked out at 0.93 ns.
As to `N#Cc1cnc(-c2c3ccccc3c(-c3ncc(C#N)cn3)c3ccccc23)nc1`, the fluorescence lifetime (in CCO) was determined as 2.5 ns and the fluorescence lifetime (in ClCCl) was determined as 5.6 ns.
On to `Cc1cc2nc3c(=O)n(C)c(=O)nc-3n(C)c2cc1C`, for which, under “in CC#N”, the fluorescence lifetime was 7.1 ns and 6.9 ns.
`c1ccc2c(-c3cc(-c4nccs4)nc(-c4nccs4)c3)cccc2c1`: the fluorescence lifetime is, setting by setting: (in CC#N) 1.96 ns; (in CCCCCC) 2.24 ns; (in CO) 1.86 ns; (in ClC(Cl)Cl) 2.19 ns.
`O=[N+]([O-])c1cccc2c1ccc1[n+]2[B-](F)(F)n2c-1cc1c3ccccc3c3ccccc3c12` had a fluorescence lifetime (in ClCCl) of 2.67 ns.
Same read-out and setting: the same measure for `COc1ccc(-c2cc3c(s2)c(C(C)=O)cc(=O)n3Cc2ccccc2)cc1`: 1.94 ns.
As to `CC(=O)N(Cc1ccccn1)c1c2ccccc2c2c3c(cccc13)C(=O)N(Cc1ccccn1)C2=O`, the fluorescence lifetime (in CCO) came out at 1.66 ns.
As to `CC1(C)c2ccccc2N(c2ccc(-c3ccc(C#N)cc3)cc2)c2ccccc21`, the fluorescence lifetime (in N#Cc1ccc2c(c1)c1ccccc1n2-c1cccc(-n2c3ccccc3c3ccccc32)c1) came out at 6.99 ns.
Molecule `COC(=O)c1nc(Cl)c(-c2ccccc2)o1` yielded a fluorescence lifetime (in C1CCCCC1) of 0.67 ns.
On to `O=C1c2ccccc2-c2ccccc21`, for which the fluorescence lifetime reads like this: (in C1CCCCC1) 0.4 ns; (in CC#N) 17.8 ns; (in CCO) 1.9 ns; (in c1ccccc1) 2.8 ns.
Consider `CCCCn1c2ccccc2c2c1c1c3ccccc3n(CCCC)c1c1c3ccccc3n(CCCC)c21`, for which, for the setting “in C1CCOC1”, the fluorescence lifetime was 6 ns.
`O=C1/C(=C2\Sc3ccc(S(=O)(=O)O)cc3C2=O)Sc2ccc(S(=O)(=O)O)cc21` yielded a fluorescence lifetime (in CN(C)C=O) of 4.85 ns, a fluorescence lifetime (in CO) of 0.99 ns, a fluorescence lifetime (in CS(C)=O) of 0.16 ns and a fluorescence lifetime (in O) of 0.13 ns.
Take `COC(=O)c1ccc(C#Cc2ccccc2)cc1`: the fluorescence lifetime runs as follows: (in C1CCCCC1) 0.59 ns; (in CC#N) 0.52 ns; (in CC(C)O) 0.64 ns; (in CCCCCC) 0.55 ns; (in CCCCCCCCCCCCCCCC) 0.55 ns; (in CCCCCCCCCCCCCCCCCl) 0.59 ns. Also, the fluorescence lifetime (in CO) was found to be 0.62 ns.
As to `CCCCc1cc2cccc3cc(CCCC)c4cc(-c5cc6[b-]7c(c5)c(CCCC)cc5cccc(cc6CCCC)[n+]75)cc1[b-]4[n+]23`, the fluorescence lifetime (in C1CCCCC1) worked out at 20.5 ns.
Where the note is “in CC#N”, `C(#Cc1ccccc1C#Cc1ccccc1)c1ccccc1` yielded a fluorescence lifetime of 1.47 ns.
Regarding `COc1cc(OC)cc(C2=[O+][B-](F)(F)OC(c3ccc4cc(OC)ccc4c3)=C2)c1`, the fluorescence lifetime (in ClCCl) was 4.32 ns.
With `C1=CC2=CC=CC3C=c4c(cc5cccc6cccc4c65)C(=C1)C23` (centres undefined), the fluorescence lifetime (in ClCCl) came out at 7.18 ns.
The molecule `Cc1cc2c(ccc3c[n+](C)c(C)cc32)c[n+]1C` showed a fluorescence lifetime (in CC#N) of 6.1 ns.
On to `N#Cc1ccc(C2=Cc3cc4ccccc4cc3P2(=O)c2ccccc2)cc1` (centres undefined), for which, under “in ClCCl”, the fluorescence lifetime came to 2.5 ns.
For the setting “in ClCCl”, `CCCCCCOc1cc(/C=C/c2cc(OCCCCCC)c(/C=C/c3cc(OCCCCCC)c(C=O)cc3OCCCCCC)cc2OCCCCCC)c(OCCCCCC)cc1C=O` had a fluorescence lifetime of 1.77 ns.
Consider `CC(C)(C)c1ccc2c(c1)c1cc(C(C)(C)C)ccc1n2-c1cc[n+]2c(c1)-c1ccccc1O[B-]2(F)F`, for which the fluorescence lifetime (in O=P(c1ccccc1)(c1ccccc1)c1ccccc1Oc1ccccc1P(=O)(c1ccccc1)c1ccccc1) turned out to be 6.3 ns.
For the setting “in ClCCl”, `O=C1c2ccccc2C2=Nc3cccc4cccc(c34)N12` displayed a fluorescence lifetime of 0.86 ns.
`N#Cc1cc2ccc(cc2)c2cccc3cccc(c4ccc(cc4)cc(C#N)c4ccc(cc4)c4cccc5cccc(c6ccc1cc6)c54)c32` displayed a fluorescence lifetime (in Cc1ccccc1) of 20.6 ns.
On to `O=P1(c2ccccc2)C(c2cc(C(F)(F)F)cc(C(F)(F)F)c2)=Cc2c3ccc4cccc5ccc(c6cc(-c7ccccc7)n1c26)c3c45` (centres undefined), for which the fluorescence lifetime was determined as 1.9 ns (in C1CCCCC1); 3.1 ns (in C1CCOC1); 2.6 ns (in C1COCCO1); 3.7 ns (in CC#N); 3.6 ns (in CC(C)=O); 3.8 ns (in CO). In addition, the fluorescence lifetime by setting is: (in Cc1ccccc1) 2.5 ns; (in ClC(Cl)Cl) 2.4 ns; (in ClCCl) 2.9 ns.
Consider `Nc1ccccc1C(=O)O`, for which the fluorescence lifetime by setting is: (in C1CCCCC1) 5.7 ns; (in CC#N) 6.9 ns; (in CCO) 7.6 ns; (in CS(C)=O) 8.7 ns; (in O) 8.6 ns and 8.7 ns; (in OCC(F)(F)F) 5.4 ns. Under “in c1ccccc1”, this molecule came in with a fluorescence lifetime of 6.3 ns.
Consider `CCOC(=O)CN(CC(=O)OCC)c1ccc(-c2cc(-c3ccccn3)nc(-c3ccccn3)c2)cc1`, for which the fluorescence lifetime reads like this: (in CC#N) 5.21 ns; (in CCOC(C)=O) 3.84 ns; (in CN(C)C=O) 6.02 ns; (in CS(C)=O) 6.76 ns; (in c1ccccc1) 1.63 ns.
